Drawing on patent US20170044152A1, “COMPOUNDS THAT MODULATE INTRACELLULAR CALCIUM” (CalciMedica, Inc., priority 2012, published 2017), this text covers IC50 for 16 compounds.

Molecules are shown by their SMILES.

For one test, the system named is JR251. The experiment in a line: JR251 IC50 (Table v). The class given is cell-based.
Conditions: not given
Compound `C=Cn1nc(-c2nccs2)cc1-c1ccc(NC(=O)c2c(F)cccc2F)s1` [Compound 5, (2,6-difluorophenyl)-N-[5-(3-(1,3-thiazol-2-yl)-1-vinylpyrazol-5-yl](2-thienyl)] carboxamide] registered an IC50 of 1210 nM.

In the next test the target is T1, Orai1/STIM1 (Homo sapiens, UniProt Q96D31).
T1 construct: c-myc (C); expressed in transfected cells; host or cells: HEK-293 cells stably overexpressing human STIM1, stably transfected with pcDNA3.1-Orai1-cmyc
T1 sequence (Q96D31 whole entry): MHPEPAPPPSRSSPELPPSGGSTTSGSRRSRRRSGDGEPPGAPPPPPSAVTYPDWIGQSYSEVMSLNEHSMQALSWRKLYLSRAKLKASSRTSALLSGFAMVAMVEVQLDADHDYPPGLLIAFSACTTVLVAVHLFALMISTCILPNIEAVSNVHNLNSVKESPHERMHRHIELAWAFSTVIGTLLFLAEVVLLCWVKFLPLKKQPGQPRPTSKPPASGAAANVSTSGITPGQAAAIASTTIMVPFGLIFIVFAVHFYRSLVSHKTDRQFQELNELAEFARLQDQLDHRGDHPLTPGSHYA
The experiment in a line: Fluorescence-based assay of store-operated calcium entry in Orai1/STIM1 stable cells. It counts as cell-based. The following applies: HEK-293 cells stably expressing human STIM1 and Orai1; Peak-Basal fluo-4 signal; Table iv; read-out: Orai1/STIM1 (IC50, μmol). As for the experimental part:
A. Fluorescence-based Assay of Store-Operated Calcium Entry in Orai1/STIM1 Stable Cells.
Cells stably expressing recombinant human STIM1 and Orai1 are generated by transfecting a human Orai1 expression plasmid (pcDNA3.1-Orai1-cmyc) into HEK-293 cells stably overexpressing human ST1M1 (Roos et al. 2005 JCB 169(3): 435-445). Colonies of cells stably expressing both STIM1 and Orai1 proteins are selected and then subcloned by limiting dilution. Cells were cultured at 37° C./6% CO2 in complete medium with 10% FBS and appropriate selection markers.
The day prior to performing the assay Orai1/STIM1 stable cells are plated in 50 μL of complete medium at 90-95% confluence in a 384 well plate. Cells are grown at 37° C./6% CO2 overnight. […] The initial baseline fluorescence signal is then measured with a FLIPR^384 (Molecular Devices) plate reader. Calcium entry is initiated by adding 5 μl of 10× CaCl2 (10 mM) in HBSS, and changes in cellular fluorescence are measured with the FLIPR^384 plate reader. In each well, the magnitude of the fluorescence signal as a result of calcium entry into the cell is determined by calculating the difference between the peak fluorescence signal measured after calcium addition and the initial baseline fluorescence signal (designated Peak-Basal). […]
Consider `Cc1cccc(F)c1C(=O)Nc1ccc(-c2cc(-c3ccccc3F)nn2C)s1` [Compound 23], for which the IC50 is 600 to 1200 nM.

The subject of a further test is RBL-2H3 cells. The experiment in a line: Fluorescence-based assay of store-operated calcium entry in RBL-2H3 cells. The class given is cell-based. Particulars: Rattus norvegicus, Table v, read-out: IC50 (nM) RBL. As for the experimental part:
B. Fluorescence-based Assay of Store-Operated Calcium Entry in RBL-2H3 Cells.
RBL-2H3 cells are obtained from ATCC and maintained in complete medium with 10% FBS at 37° C./6% CO2.
The day prior to performing the assay, RBL-2H3 cells are plated in 50 μL of complete medium in a 384 well plate. Cells are grown at 37° C./6% CO2 overnight and grow to 50-60% confluence by the next day. On the assay day, 1.5 μM Fluo-4-AM dye (Invitrogen) in complete medium is added and incubated for 1 hour at RT. Cells are washed twice in Ca^2+-free HBSS buffer and 35 μL Ca^2|-free HBSS buffer is added to each well. 10 μL of a test compound prepared in a Ca^2+-free HBSS solution at […] of the desired concentration is added to a well and incubated for 5 minutes at RT. 10 μL of thapsigargin prepared in a Ca^2+-free HBSS solution at 5.5× of the desired concentration (5.5 uM) is added to each well and incubated for an additional 25 minutes. The initial baseline fluorescence signal is measured with a FLIPR^384 (Molecular Devices) plate reader. 5 μL of 12× calcium in HBSS (12 mM) is added and changes in cellular fluorescence arc measured with the FLIPR^384 plate reader. In each well, the change in the fluorescent signal as a function of time due to calcium entry into the cell is determined by calculating the difference between the fluorescent signal measured 7 seconds after calcium addition and the initial baseline fluorescence signal at time zero (t=0). This parameter is designated Upslope. The IC50 value is calculated as the concentration at which 50% of the Upslope is inhibited.
For the compound `C=Cn1nc(-c2nccs2)cc1-c1ccc(NC(=O)c2c(F)cccc2F)s1` [Compound 5, (2,6-difluorophenyl)-N-[5-(3-(1,3-thiazol-2-yl)-1-vinylpyrazol-5-yl](2-thienyl)] carboxamide], the IC50 was found to be 106 nM.

Staying with this test, now noted: Rattus norvegicus, thapsigargin, Upslope of fluo-4 signal, Table iii, read-out: RBL-2H3 (IC50, μmol).
In the case of `Cc1oc(C(F)(F)F)nc1-c1ccc(NC(=O)c2ccccc2F)nc1` [Compound 16], the IC50 was less than 600 nM.
Same read-out and setting: under `Cc1oc(C(F)(F)F)nc1-c1ccc(NC(=O)c2c(F)cccc2F)nc1` [Compound 14, 2,6-difluoro-N-(5-(5-methyl-2-(trifluoromethyl)oxazol-4-yl)pyridin-2-yl)benzamide] stands less than 600 nM; under `CCc1oc(C(F)(F)F)nc1-c1ccc(NC(=O)c2c(F)cccc2F)nc1` [Compound 25, N-(5-(5-ethyl-2-(trifluoromethyl)oxazol-4-yl)pyridin-2-yl)-2,6-difluorobenzamide], less than 600 nM; under `Cc1ccccc1C(=O)Nc1ccc(-c2nc(C(F)(F)F)oc2C)cn1` [Compound 15], less than 600 nM.
On the same count and under the same terms, under `Cc1oc(C(F)(F)F)nc1-c1ccc(NC(=O)c2c(F)cncc2F)nc1` [Compound 17, 3,5-difluoro-N-(5-(5-methyl-2-(trifluoromethyl)oxazol-4-yl)pyridin-2-yl)isonicotinamide] stands less than 600 nM; under `CCc1oc(C(F)(F)F)nc1-c1ccc(NC(=O)c2ccccc2F)nc1` [Compound 24, N-(5-(5-ethyl-2-(trifluoromethyl)oxazol-4-yl)pyridin-2-yl)-2-fluorobenzamide], less than 600 nM.
Take `Cc1oc(C(F)(F)F)nc1-c1ccc(NC(=O)c2cccc(F)c2C)nc1` [Compound 19, 3-fluoro-2-methyl-N-(5-(5-methyl-2-(trifluoromethyl)oxazol-4-yl)pyridin-2-yl)benzamide]: the IC50 is less than 600 nM.

The test is the same for the next values; noted with them: Rattus norvegicus, thapsigargin, Upslope of fluo-4 signal, Table iv, read-out: RBL-2H3 (IC50, μmol).
Consider `CCn1nc(-c2nccs2)cc1-c1ccc(NC(=O)c2c(F)cc(F)cc2F)s1` [Compound 16], for which the IC50 was less than 600 nM.
As to `Cn1nc(-c2ccccn2)cc1-c1ccc(NC(=O)c2c(F)cc(F)cc2F)s1` [Compound 27, 2,4,6-trifluoro-N-(5-(1-methyl-3-(pyridin-2-yl)-1H-pyrazol-5-yl)thiophen-2-yl)benzamide], the IC50 is less than 600 nM.
On the same count and under the same terms, under `Cn1nc(-c2ccccn2)cc1-c1ccc(NC(=O)c2c(F)cccc2F)s1` [Compound 28, 2,6-difluoro-N-(5-(1-methyl-3-(pyridin-2-yl)-1H-pyrazol-5-yl)thiophen-2-yl)benzamide] stands less than 600 nM.
Still for that read-out and setting: under `Cc1cccc(F)c1C(=O)Nc1ccc(-c2cc(-c3ccccc3F)nn2C)s1` [Compound 23] stands less than 600 nM; under `Cn1nc(-c2nccs2)cc1-c1ccc(NC(=O)c2c(F)cc(F)cc2F)s1` [Compound 10, (2,4,6-trifluorophenyl)-N-[5-[1-methyl-3-(1,3-thiazol-2-yl)pyrazol-5-yl](2-thienyl)] carboxamide], less than 600 nM; under `CCn1nc(-c2nccs2)cc1-c1ccc(NC(=O)c2c(F)cccc2F)s1` [Compound 15], less than 600 nM.
On the same count and under the same terms, under `Cn1nc(-c2nccs2)cc1-c1ccc(NC(=O)c2ccc(F)cc2F)s1` [Compound 7, (2,4-difluorophenyl)-N-[5-[1-methyl-3-(1,3-thiazol-2-yl)pyrazol-5-yl](2-thienyl)] carboxamide] stands less than 600 nM; under `Cn1nc(-c2nccs2)cc1-c1ccc(NC(=O)c2c(F)cccc2F)s1` [Compound 6, (2,6-difluorophenyl)-N-[5-[1-methyl-3-(1,3-thiazol-2-yl)pyrazol-5-yl](2-thienyl)] carboxamide], less than 600 nM.
